In the supplement of paper PMC10307832:

Tests used:
Test in all cases: relative viability (nuclei count vs DMSO), 5 days (fraction); higher = more cells survive
[1] = compound: CNC(=O)c1cc(Oc2ccc(NC(=O)Nc3ccc(Cl)c(C(F)(F)F)c3)cc2)ccn1 [Sorafenib]
Summary of the method: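 Viability here means nuclei in treated wells divided by nuclei in vehicle wells, reported as the median across plates. Only plates with control CV below 25% and at least one doubling passed. Lung cancer cell lines in 1536-well plates were exposed to five √10-spaced library-drug doses for 5 days and counted from 4× Hoechst images in MetaXpress.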

[2] = compound: CNC(=O)c1cc(Oc2ccc(NC(=O)Nc3ccc(Cl)c(C(F)(F)F)c3)cc2)ccn1 [Sorafenib] + O=C(c1cc(Cc2n[nH]c(=O)c3ccccc23)ccc1F)N1CCN(C(=O)C2CC2)CC1 [Olaparib] (partner 8 µM)
Summary of the method: (§1)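 Lung cancer cell lines in 1536-well plates were dosed by pin tool the day after seeding, either with one drug alone or with a fixed anchor-drug dose plus five library-drug doses (not always all listed) in √10 steps. After 5 days, cells were fixed and their nuclei stained in one step (final 0.05% Triton X-100, 1% formaldehyde, 1 ug/ml Hoechst), then counted on 4× images. Relative viability is the nuclei count in treated wells divided by that in vehicle wells. Values are medians of duplicate plates.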

[3] = compound: CNC(=O)c1cc(Oc2ccc(NC(=O)Nc3ccc(Cl)c(C(F)(F)F)c3)cc2)ccn1 [Sorafenib] + COc1cc2c(Oc3ccc(NC(=O)C4(C(=O)Nc5ccc(F)cc5)CC4)cc3F)ccnc2cc1OCCCN1CCOCC1 [Foretinib] (partner 0.25 µM)
Summary of the method: as §1

[4] = compound: CNC(=O)c1cc(Oc2ccc(NC(=O)Nc3ccc(Cl)c(C(F)(F)F)c3)cc2)ccn1 [Sorafenib] + CC1(C)CCC(c2ccc(Cl)cc2)=C(CN2CCN(c3ccc(C(=O)NS(=O)(=O)c4ccc(N[C@H](CCN5CCOCC5)CSc5ccccc5)c(S(=O)(=O)C(F)(F)F)c4)cc3)CC2)C1 [Navitoclax] (partner 0.5 µM)
Summary of the method: as §1

[5] = compound: CNC(=O)c1cc(Oc2ccc(NC(=O)Nc3ccc(Cl)c(C(F)(F)F)c3)cc2)ccn1 [Sorafenib] + C[C@@H](Oc1cc(-c2cnn(C3CCNCC3)c2)cnc1N)c1c(Cl)ccc(F)c1Cl [Crizotinib] (partner 1 µM)
Summary of the method: as §1

[6] = compound: CNC(=O)c1cc(Oc2ccc(NC(=O)Nc3ccc(Cl)c(C(F)(F)F)c3)cc2)ccn1 [Sorafenib] + Cc1nc(NC(=O)N2CCC[C@H]2C(N)=O)sc1-c1ccnc(C(C)(C)C(F)(F)F)c1 [Alpelisib] (partner 2 µM)
Summary of the method: as §1

[7] = compound: CNC(=O)c1cc(Oc2ccc(NC(=O)Nc3ccc(Cl)c(C(F)(F)F)c3)cc2)ccn1 [Sorafenib] + C[C@]1(O)C[C@@H](c2nc(-c3ccc4ccc(-c5ccccc5)nc4c3)c3c(N)nccn32)C1 [Linsitinib] (partner 1 µM)
Summary of the method: as §1

[8] = compound: CNC(=O)c1cc(Oc2ccc(NC(=O)Nc3ccc(Cl)c(C(F)(F)F)c3)cc2)ccn1 [Sorafenib] + CC(C)C[C@H](NC(=O)[C@H](Cc1ccccc1)NC(=O)c1cnccn1)B(O)O [Bortezomib] (partner 0.002 µM)
Summary of the method: as §1

[9] = compound: CNC(=O)c1cc(Oc2ccc(NC(=O)Nc3ccc(Cl)c(C(F)(F)F)c3)cc2)ccn1 [Sorafenib] + CS(=O)(=O)CCNCc1ccc(-c2ccc3ncnc(Nc4ccc(OCc5cccc(F)c5)c(Cl)c4)c3c2)o1 [Lapatinib] (partner 2 µM)
Summary of the method: as §1

[10] = compound: CNC(=O)c1cc(Oc2ccc(NC(=O)Nc3ccc(Cl)c(C(F)(F)F)c3)cc2)ccn1 [Sorafenib] + CS(=O)(=O)N1CCN(Cc2cc3nc(-c4cccc5[nH]ncc45)nc(N4CCOCC4)c3s2)CC1 [Pictilisib] (partner 1 µM)
Summary of the method: as §1

[11] = compound: CNC(=O)c1cc(Oc2ccc(NC(=O)Nc3ccc(Cl)c(C(F)(F)F)c3)cc2)ccn1 [Sorafenib] + N=C(N)NC(=N)NCCc1ccccc1 [Phenformin] (partner 250 µM)
Summary of the method: as §1

[12] = compound: CNC(=O)c1cc(Oc2ccc(NC(=O)Nc3ccc(Cl)c(C(F)(F)F)c3)cc2)ccn1 [Sorafenib] + CCNC(=O)c1noc(-c2cc(C(C)C)c(O)cc2O)c1-c1ccc(CN2CCOCC2)cc1 [Luminespib] (partner 0.01 µM)
Summary of the method: as §1

[13] = compound: CNC(=O)c1cc(Oc2ccc(NC(=O)Nc3ccc(Cl)c(C(F)(F)F)c3)cc2)ccn1 [Sorafenib] + COc1cccc2cc(-c3nc([C@H]4CC[C@H](C(=O)O)CC4)n4ncnc(N)c34)[nH]c12 [OSI-027] (partner 0.5 µM)
Summary of the method: as §1

[14] = compound: CNC(=O)c1cc(Oc2ccc(NC(=O)Nc3ccc(Cl)c(C(F)(F)F)c3)cc2)ccn1 [Sorafenib] + Cc1nc(Nc2ncc(C(=O)Nc3c(C)cccc3Cl)s2)cc(N2CCN(CCO)CC2)n1 [Dasatinib] (partner 0.075 µM)
Summary of the method: as §1

[15] = compound: CNC(=O)c1cc(Oc2ccc(NC(=O)Nc3ccc(Cl)c(C(F)(F)F)c3)cc2)ccn1 [Sorafenib] + Cc1cc(Nc2cc(N3CCN(C)CC3)nc(Sc3ccc(NC(=O)C4CC4)cc3)n2)n[nH]1 [Tozasertib] (partner 0.1 µM)
Summary of the method: as §1

Cell Line: NCI-H1299
- relative viability ([1]; 0.08 µM): 1.02
- relative viability ([1]; 0.253 µM): 0.963
- relative viability ([1]; 2.53 µM): 0.957
- relative viability ([1]; 8 µM): 0.922
- relative viability ([2]; first compound 0.08 µM): 0.903
- relative viability ([2]; first compound 0.253 µM): 0.894
- relative viability ([2]; first compound 2.53 µM): 0.882
- relative viability ([2]; first compound 8 µM): 0.537
- relative viability ([3]; first compound 0.08 µM): 1.09
- relative viability ([3]; first compound 0.253 µM): 1.08
- relative viability ([3]; first compound 2.53 µM): 1.02
- relative viability ([3]; first compound 8 µM): 1.05
- relative viability ([4]; first compound 0.08 µM): 1.07
- relative viability ([4]; first compound 0.253 µM): 1.05
- relative viability ([4]; first compound 2.53 µM): 1.01
- relative viability ([4]; first compound 8 µM): 0.573
- relative viability ([5]; first compound 0.08 µM): 0.9
- relative viability ([5]; first compound 0.253 µM): 0.859
- relative viability ([5]; first compound 2.53 µM): 0.907
- relative viability ([5]; first compound 8 µM): 0.688
- relative viability ([6]; first compound 0.08 µM): 1.06
- relative viability ([6]; first compound 0.253 µM): 0.982
- relative viability ([6]; first compound 2.53 µM): 0.962
- relative viability ([6]; first compound 8 µM): 0.877
- relative viability ([7]; first compound 0.08 µM): 0.947
- relative viability ([7]; first compound 0.253 µM): 0.88
- relative viability ([7]; first compound 2.53 µM): 0.875
- relative viability ([7]; first compound 8 µM): 0.946
- relative viability ([8]; first compound 0.08 µM): 1.02
- relative viability ([8]; first compound 0.253 µM): 1.04
- relative viability ([8]; first compound 2.53 µM): 1.01
- relative viability ([8]; first compound 8 µM): 0.952
- relative viability ([9]; first compound 0.08 µM): 0.933
- relative viability ([9]; first compound 0.253 µM): 0.86
- relative viability ([9]; first compound 2.53 µM): 0.874
- relative viability ([9]; first compound 8 µM): 0.802
- relative viability ([10]; first compound 0.08 µM): 0.867
- relative viability ([10]; first compound 0.253 µM): 0.487
- relative viability ([10]; first compound 2.53 µM): 0.64
- relative viability ([10]; first compound 8 µM): 0.253

Cell Line: NCI-H1623
- relative viability ([1]; 0.08 µM): 0.977
- relative viability ([1]; 0.253 µM): 0.898
- relative viability ([1]; 2.53 µM): 1.06
- relative viability ([1]; 8 µM): 0.945
- relative viability ([3]; first compound 0.08 µM): 1.06
- relative viability ([3]; first compound 0.253 µM): 0.852
- relative viability ([3]; first compound 2.53 µM): 0.975
- relative viability ([3]; first compound 8 µM): 0.776
- relative viability ([11]; first compound 0.08 µM): 0.651
- relative viability ([11]; first compound 0.253 µM): 0.562
- relative viability ([11]; first compound 2.53 µM): 0.66
- relative viability ([11]; first compound 8 µM): 0.521
- relative viability ([12]; first compound 0.08 µM): 0.544
- relative viability ([12]; first compound 0.253 µM): 0.366
- relative viability ([12]; first compound 2.53 µM): 0.611
- relative viability ([12]; first compound 8 µM): 0.342
- relative viability ([13]; first compound 0.08 µM): 0.414
- relative viability ([13]; first compound 0.253 µM): 0.411
- relative viability ([13]; first compound 2.53 µM): 0.5
- relative viability ([13]; first compound 8 µM): 0.37
- relative viability ([14]; first compound 0.08 µM): 0.537
- relative viability ([14]; first compound 0.253 µM): 0.552
- relative viability ([14]; first compound 2.53 µM): 0.604
- relative viability ([14]; first compound 8 µM): 0.429
- relative viability ([15]; first compound 0.08 µM): 0.431
- relative viability ([15]; first compound 0.253 µM): 0.397
- relative viability ([15]; first compound 2.53 µM): 0.476
- relative viability ([15]; first compound 8 µM): 0.411
